Here are results for 2 molecules from patent publication US5332759A, “Naphthalene amides and sulphonamides, processes for their preparation and pharmaceutical compositions containing them” (Adir et Compagnie, priority 1992, dated 1994).

The subject of test [1] is annular sections of the basilar artery of dogs. The experiment in a line: In vitro vasoconstrictive activity in the basilar artery of dogs. The note with it: dog basilar artery, endothelium removed. The protocol: Experiments are carried out on annular sections of the basilar artery of dogs from which the endothelium has been removed and which are placed in an organ chamber enabling the measurement of isometric contractions in the presence or absence of ketanserin.

The test system of test [2] is sections of the saphenous vein. Nature of the test: Effect on sections of the saphenous vein. Also on record: species or system dogs. The note with it: same doses as in the basilar artery test.
Test [3] concerns annular sections of the coronary artery. The experiment in a line: Effect on annular sections of the coronary artery. Set-up: species or system dogs. The note with it: same doses as in the basilar artery test.

As a reminder, the EC50 is the midpoint of the concentration-response curve. For the molecule `CNS(=O)(=O)Cc1ccc2cccc(CCN(C)C)c2c1` [Example 1, 2-{1-[2-(Dimethylamino)ethyl]naphth-7-yl}-N-methyl-methanesulphonamide], the 50% effective concentration (EC50) in test [1] (isometric contractions, read-out: EC50, contraction of basilar artery sections) was approximately 1000 nM. Further, the “effect on sections of the saphenous vein” value in test [2] is listed as “does not show any significant effect”. In test [3], the “effect on annular sections of the coronary artery” value is on record as “does not show any significant effect”.

On to `NCCc1c[nH]c2ccc(O)cc12` [serotonin, reference compound], for which, in test [1], the “induction of contractions in arterial sections” value is “capable of inducing contractions”.
